Laboratory results as given in PubChem BioAssay AID330 (DTP/NCI, 2004).
Several values for one entry are separate records, joined by “and”; a condition that tells them apart may be missing. Equal entries are not always repeated. Inconclusive results and toxic doses are left out. How the source made its calls: active means survival T/C of 150% or more; inactive means T/C below 125% in these data. Peptide text beside a SMILES is read from it. * marks the point of attachment. Boc = CC(C)(C)OC(=O)*

Test system: P388 leukemia ip, CD2F1 mice, survival T/C
Test: NCI In Vivo Anticancer Drug Screen. Data for tumor model P388 Leukemia (intraperitoneal) in CD2F1 (CDF1) mice
Conditions: endpoint: median survival time, higher = longer survival
In short: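 Mice carrying the transplanted tumor received test compound or vehicle. Survival was recorded in each group, and the value is the treated-group measurement divided by that of the vehicle-treated control group.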

[1] = dose: 60.0 mg/kg/injection, schedule: Q01DX005 (ip), vehicle: saline with Tween-80
[2] = dose: 120.0 mg/kg/injection, schedule: Q01DX005 (ip), vehicle: saline with Tween-80
[3] = dose: 240.0 mg/kg/injection, schedule: Q01DX005 (ip), vehicle: saline with Tween-80
[4] = dose: 50.0 mg/kg/injection, schedule: Q01DX009 (ip), vehicle: saline with Tween-80
[5] = dose: 100.0 mg/kg/injection, schedule: Q01DX009 (ip), vehicle: saline with Tween-80
[6] = dose: 50.0 mg/kg/injection, schedule: Q01DX005 (ip), vehicle: saline with Tween-80
[7] = dose: 100.0 mg/kg/injection, schedule: Q01DX005 (ip), vehicle: saline with Tween-80
[8] = dose: 200.0 mg/kg/injection, schedule: Q01DX005 (ip), vehicle: saline with Tween-80
[9] = dose: 50.0 mg/kg/injection, schedule: Q01DX005 (ip), vehicle: Klucel (hydroxypropylcellulose) (HPC)
[10] = dose: 100.0 mg/kg/injection, schedule: Q01DX005 (ip), vehicle: Klucel (hydroxypropylcellulose) (HPC)
[11] = dose: 200.0 mg/kg/injection, schedule: Q01DX005 (ip), vehicle: Klucel (hydroxypropylcellulose) (HPC)
[12] = dose: 12.5 mg/kg/injection, schedule: Q01DX009 (ip), vehicle: saline
[13] = dose: 25.0 mg/kg/injection, schedule: Q01DX009 (ip), vehicle: saline
[14] = dose: 50.0 mg/kg/injection, schedule: Q01DX009 (ip), vehicle: saline
[15] = dose: 100.0 mg/kg/injection, schedule: Q01DX009 (ip), vehicle: saline
[16] = dose: 200.0 mg/kg/injection, schedule: Q01DX009 (ip), vehicle: saline with Tween-80
[17] = dose: 200.0 mg/kg/injection, schedule: Q01DX009 (ip), vehicle: saline

Measured: T/C

CC1Cn2c(Cc3ccccc3)nnc2S1 (stereo not drawn)
inactive: [1] 104 % of control | [2] 93 % of control | [3] 100 % of control

O=C(O)/C=C/CCCCCO
inactive: dose: 100.0 mg/kg/injection, schedule: Q01DX001 (ip), vehicle: saline with Tween-80 94 % of control | dose: 200.0 mg/kg/injection, schedule: Q01DX001 (ip), vehicle: saline with Tween-80 97 % of control | dose: 400.0 mg/kg/injection, schedule: Q01DX001 (ip), vehicle: saline with Tween-80 90 % of control

CN(C)CCNc1ccccc1[N+](=O)[O-]
inactive: dose: 12.5 mg/kg/injection, schedule: Q01DX001 (ip), vehicle: saline 100 % of control | dose: 25.0 mg/kg/injection, schedule: Q01DX001 (ip), vehicle: saline 100 % of control | dose: 50.0 mg/kg/injection, schedule: Q01DX001 (ip), vehicle: saline 100 % of control

c1cnc2c(c1)C1OC(S2)c2cccnc2S1
inactive: [4] 102 % of control | [5] 97 % of control

O=P(CCC(O)c1ccccc1)(c1ccccc1)c1ccccc1 (stereo not drawn)
inactive: dose: 25.0 mg/kg/injection, schedule: Q01DX009 (ip), vehicle: saline sonified 100 % of control | dose: 50.0 mg/kg/injection, schedule: Q01DX009 (ip), vehicle: saline sonified 90 % of control

CC(C)CC(CC(C)C)[N+](=O)[O-]
inactive: [6] 111 % of control | [7] 105 % of control | [8] 107 % of control

CC12Oc3ccc(Cl)cc3C1(C)c1cc(Cl)ccc1O2 (stereo not drawn)
inactive: dose: 50.0 mg/kg/injection, schedule: Q01DX009 (ip), vehicle: acetone 104 % of control | dose: 100.0 mg/kg/injection, schedule: Q01DX009 (ip), vehicle: acetone 102 % of control | dose: 200.0 mg/kg/injection, schedule: Q01DX009 (ip), vehicle: acetone 102 % of control

CC(=O)OCC1OC(OC(C)=O)C(NC(=O)C(C)NC(=O)OCc2ccccc2)C(OC(C)=O)C1OC(C)=O (stereo not drawn)
inactive: dose: 12.5 mg/kg/injection, schedule: Q01DX009 (ip), vehicle: other 99 % of control | dose: 25.0 mg/kg/injection, schedule: Q01DX009 (ip), vehicle: other 104 % of control | dose: 50.0 mg/kg/injection, schedule: Q01DX009 (ip), vehicle: other 113 % of control | dose: 100.0 mg/kg/injection, schedule: Q01DX009 (ip), vehicle: other 104 % of control | dose: 200.0 mg/kg/injection, schedule: Q01DX009 (ip), vehicle: other 92 % of control

CSCCC(NC(=O)C(CC(C)C)NC(=O)OC(C)(C)C)C(N)=O (stereo not drawn) (Boc-Leu-Met-NH2; configuration not given here)
inactive: [9] 98 % of control | [10] 91 % of control | [11] 95 % of control

CCOC(=O)c1cnc2cc3c(cc2c1N=[N+]=[N-])OCO3
inactive: [1] 95 % of control | [2] 90 % of control | [3] 87 % of control

C=C(Cl)C[N+]12CN3CN(CN(C3)C1)C2
inactive: [12] 100 % of control | [13] 96 % of control | [14] 105 % of control | [15] 107 % of control

COc1c(Br)c2c(c([N+](=O)[O-])c1OC)C(=O)OC2
inactive: dose: 25.0 mg/kg/injection, schedule: Q01DX005 (ip), vehicle: Klucel (hydroxypropylcellulose) (HPC) 103 % of control | [9] 96 % of control | [10] 96 % of control | [11] 104 % of control

COc1cc2c(O)cc(C(=O)O)c(-c3cc(OC)c(OC)c(OC)c3)c2cc1OC
inactive: [6] 98 % of control | [7] 103 % of control | [8] 100 % of control

NC(N)=N/N=C1/c2ccccc2/C(=N/N=C(N)N)C1[N+](=O)[O-]
inactive: dose: 25.0 mg/kg/injection, schedule: Q01DX001 (ip), vehicle: Klucel (hydroxypropylcellulose) (HPC) 112 % of control | dose: 50.0 mg/kg/injection, schedule: Q01DX001 (ip), vehicle: Klucel (hydroxypropylcellulose) (HPC) 114 % of control | dose: 100.0 mg/kg/injection, schedule: Q01DX001 (ip), vehicle: Klucel (hydroxypropylcellulose) (HPC) 114 % of control | dose: 200.0 mg/kg/injection, schedule: Q01DX001 (ip), vehicle: Klucel (hydroxypropylcellulose) (HPC) 113 % of control | dose: 400.0 mg/kg/injection, schedule: Q01DX001 (ip), vehicle: Klucel (hydroxypropylcellulose) (HPC) 111 % of control

Cc1cccc(OC(=O)Nc2ccc(C(=O)O)c(O)c2)c1
inactive: [1] 106 % of control | [2] 90 % of control

Cc1[nH]c(=O)[nH]c(=O)c1C=O
inactive: [4] 103 % of control | [5] 106 % of control | [16] 99 % of control

Cc1ccc(NC(=O)Cc2nc3ccccc3s2)c(C)c1
inactive: [1] 103 % of control | [2] 110 % of control

CC(C)C(N)P(=O)(O)O (stereo not drawn)
inactive: dose: 25.0 mg/kg/injection, schedule: Q01DX009 (ip), vehicle: suspension in saline 96 % of control | dose: 50.0 mg/kg/injection, schedule: Q01DX009 (ip), vehicle: suspension in saline 98 % of control | dose: 100.0 mg/kg/injection, schedule: Q01DX009 (ip), vehicle: suspension in saline 99 % of control | dose: 200.0 mg/kg/injection, schedule: Q01DX009 (ip), vehicle: suspension in saline 100 % of control

CCOC(=O)CC[Si](CC)(CC)CC
inactive: [14] 104 % of control | [15] 93 % of control | [17] 90 % of control

O=c1[nH]cc(N(CCCl)CCCl)c(=O)[nH]1
active: dose: 0.39 mg/kg/injection, schedule: Q01DX009 (ip), vehicle: saline with Tween-80 181 % of control | dose: 0.65 mg/kg/injection, schedule: Q01DX009 (ip), vehicle: saline with Tween-80 181 % of control | dose: 1.1 mg/kg/injection, schedule: Q01DX009 (ip), vehicle: saline with Tween-80 236 % of control | dose: 1.8 mg/kg/injection, schedule: Q01DX009 (ip), vehicle: saline with Tween-80 227 % of control
inactive: dose: 0.05 mg/kg/injection, schedule: Q01DX009 (ip), vehicle: saline with Tween-80 109 % of control | dose: 0.08 mg/kg/injection, schedule: Q01DX009 (ip), vehicle: saline with Tween-80 109 % of control | dose: 3.0 mg/kg/injection, schedule: Q01DX009 (ip), vehicle: saline with Tween-80 118 % of control

CC(OC(=O)c1ccccc1C(=O)O)c1ccccc1 (stereo not drawn)
active: [17] 186 % of control
inactive: [12] 91 % of control | [13] 99 % of control and 101 % of control | [14] 101 % of control and 108 % of control and 98 % of control | [15] 104 % of control

O=c1oc(-c2cccc(C[n+]3ccccc3)c2)nc2cc(Cl)ccc12
inactive: dose: 15.0 mg/kg/injection, schedule: Q01DX005 (ip), vehicle: saline 98 % of control | dose: 30.0 mg/kg/injection, schedule: Q01DX005 (ip), vehicle: saline 100 % of control | dose: 60.0 mg/kg/injection, schedule: Q01DX005 (ip), vehicle: saline 102 % of control and 110 % of control

O=c1c2ccccc2sc2c(CO)ccc(NCCCN3CCN(CCCNc4ccc(CO)c5sc6ccccc6c(=O)c45)CC3)c12
inactive: dose: 0.67 mg/kg/injection, schedule: Q01DX005 (ip), vehicle: saline with Tween-80 93 % of control | dose: 1.25 mg/kg/injection, schedule: Q01DX005 (ip), vehicle: saline with Tween-80 104 % of control | dose: 2.5 mg/kg/injection, schedule: Q01DX005 (ip), vehicle: saline with Tween-80 107 % of control | dose: 5.0 mg/kg/injection, schedule: Q01DX005 (ip), vehicle: saline with Tween-80 95 % of control | dose: 10.0 mg/kg/injection, schedule: Q01DX005 (ip), vehicle: saline with Tween-80 104 % of control | dose: 20.0 mg/kg/injection, schedule: Q01DX005 (ip), vehicle: saline with Tween-80 94 % of control | dose: 40.0 mg/kg/injection, schedule: Q01DX005 (ip), vehicle: saline with Tween-80 86 % of control and 95 % of control | dose: 80.0 mg/kg/injection, schedule: Q01DX005 (ip), vehicle: saline with Tween-80 90 % of control

COC/C(Br)=C\SC#N (tested in a mixture with another compound)
inactive: dose: 3.75 mg/kg/injection, schedule: Q01DX005 (ip), vehicle: saline with Tween-80 120 % of control | dose: 7.5 mg/kg/injection, schedule: Q01DX005 (ip), vehicle: saline with Tween-80 122 % of control

CCCCNC(=S)S
inactive: [5] 109 % of control | [16] 109 % of control | dose: 400.0 mg/kg/injection, schedule: Q01DX009 (ip), vehicle: saline with Tween-80 104 % of control
